Test results published in ChEMBL document CHEMBL5634172, “Peniditerpenoids A and B: Oxidized Indole Diterpenoids with Osteoclast Differentiation Inhibitory Activity from a Mangrove-Sediment-Derived Penicillium sp” (J Nat Prod, 2024).
Activity calls are given as the source filed them. The rule behind the calls is not given here.

What was measured:
RAW264.7 [1] = assay: Antiinflammatory activity against mouse RAW264.7 cells stably transfected with luciferase reporter gene assessed as inhibition of LPS-induced NF-kB activation preincubated for 30 min followed by LPS stimulation for 8 hrs by luciferase based assay; assay type: functional, cell-based
BMDM = assay: Anti-osteoclastogenesis activity in RANKL/MCSF-induced mouse BMDM cells assessed as inhibition of osteoclast differentiation at 5 to 20 uM incubated for 3 days by TRAP-staining based microscopic analysis; assay type: functional, cell-based; details: dose 5-20 µM, time 3.0 day
RAW264.7 [2] = assay: Cytotoxicity against mouse RAW264.7 cells assessed as reduction in cell viability at 5 to 20 uM incubated for 72 hrs by MTT assay; assay type: toxicity, cell-based; details: raw264.7, 72 h, dose 5-20 µM
[3] = target: T1, Mitogen-activated protein kinase kinase kinase 7 (Mus musculus) (UniProt Q62073); assay: Inhibition of TAK1 activation in mouse RAW264.7 cells at 5 to 20 uM preincubated for 4 hrs followed by RANKL addition and measured after 30 mins by Western blot analysis; assay type: cell-based; details: dose 5-20 µM, time 4.5 hrs
T1 sequence (whole entry): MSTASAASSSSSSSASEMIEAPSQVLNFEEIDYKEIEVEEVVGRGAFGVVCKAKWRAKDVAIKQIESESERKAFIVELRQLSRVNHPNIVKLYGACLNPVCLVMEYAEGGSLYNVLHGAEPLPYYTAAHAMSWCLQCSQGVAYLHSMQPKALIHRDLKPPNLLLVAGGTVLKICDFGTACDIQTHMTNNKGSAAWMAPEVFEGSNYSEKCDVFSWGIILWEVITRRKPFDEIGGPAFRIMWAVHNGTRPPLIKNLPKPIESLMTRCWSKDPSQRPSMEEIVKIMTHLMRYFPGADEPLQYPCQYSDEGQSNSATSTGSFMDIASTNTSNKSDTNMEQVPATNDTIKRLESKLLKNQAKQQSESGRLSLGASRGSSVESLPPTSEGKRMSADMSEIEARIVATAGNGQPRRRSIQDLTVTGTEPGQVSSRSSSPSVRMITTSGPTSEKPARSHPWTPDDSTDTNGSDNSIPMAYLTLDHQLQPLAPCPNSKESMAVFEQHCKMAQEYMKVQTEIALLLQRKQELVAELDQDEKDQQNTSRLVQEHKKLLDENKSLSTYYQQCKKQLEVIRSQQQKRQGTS

[4] = target: T2, NF-kappa-B inhibitor alpha (Mus musculus) (UniProt Q9Z1E3); assay: Inhibition of IkappaBalpha phosphorylation in mouse RAW264.7 cells at 5 to 20 uM preincubated for 4 hrs followed by RANKL addition and measured after 30 mins by Western blot analysis; assay type: cell-based; details: dose 5-20 µM
T2 sequence (whole entry): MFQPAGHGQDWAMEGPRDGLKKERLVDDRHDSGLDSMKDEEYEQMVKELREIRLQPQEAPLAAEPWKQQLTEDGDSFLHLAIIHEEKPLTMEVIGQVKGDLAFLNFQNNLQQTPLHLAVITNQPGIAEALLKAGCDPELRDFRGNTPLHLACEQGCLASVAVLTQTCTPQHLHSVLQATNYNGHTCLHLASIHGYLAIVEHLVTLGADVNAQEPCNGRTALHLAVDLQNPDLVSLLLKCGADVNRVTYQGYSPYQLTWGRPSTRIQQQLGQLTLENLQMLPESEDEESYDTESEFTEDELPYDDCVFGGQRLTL

RAW264.7 [5] = assay: Upregulation of cytoplasmic p65 level in mouse RAW264.7 cells at 5 to 20 uM preincubated for 4 hrs followed by RANKL addition and measured after 30 mins by Western blot analysis; assay type: functional, cell-based; details: dose 5-20 µM, time 4.5 hrs
RAW264.7 [6] = assay: Inhibition of p65 translocation in mouse RAW264.7 cells at 5 to 20 uM preincubated for 4 hrs followed by RANKL addition and measured after 30 mins by Western blot analysis; assay type: cell-based; details: dose 5-20 µM, time 4.5 hrs
RAW264.7 [7] = assay: Inhibition of p65 translocation in mouse RAW264.7 cells at 20 uM preincubated with RANKL for 24 hrs followed by compound addition and measured after 4 hrs by immunofluorescence analysis; assay type: cell-based
RAW264.7 [8] = assay: Downregulation of nuclear NFATc1 expression in mouse RAW264.7 cells at 20 uM preincubated for 4 hrs followed by RANKL addition and measured after 24 hrs by Western blot analysis; assay type: functional, cell-based; details: time 28.0 hrs

Compound	IC50 (RAW264.7 [1]) [µM]	Activity (BMDM)	Activity (RAW264.7 [2])	inhibition [3]	inhibition [4]	Activity (RAW264.7 [5])	inhibition (RAW264.7 [6])	inhibition (RAW264.7 [7])	Activity (RAW264.7 [8])
Cc1ccc(S(=O)(=O)/C=C/C#N)cc1	5	–	–	–	–	–	–	–	–
CC1(C)O[C@@]23CC[C@@]4(C)[C@@](O)(CC[C@@H](CC(=O)c5ccccc5N)[C@]4(C)C(=O)O)C2=CC(=O)[C@@H]1O3	11	Active	Non-Toxic	Active	Active	Active	Active	Active	Active
